Earlier results, collected in patent publication US20110268797A1, “MULTICOATED ALISKIREN FORMULATIONS” (Sanovel IIac Sanayi Ve Ticaret Anonim Sirketi, priority 2010, published 2011).
Like-named read-outs stand apart in the source and are kept apart here.

Measured: solubility

COCCCOc1cc(C[C@@H](C[C@H](N)[C@@H](O)C[C@H](C(=O)NCC(C)(C)C(N)=O)C(C)C)C(C)C)ccc1OC [Aliskiren hemifumarate]
freely soluble: in n-octanol | in phosphate buffer | in water
